Measurements as given in patent publication US9242984B2, “Pyrazolyl derivatives as Syk inhibitors” (Merck Sharp & Dohme Corp., priority 2012, dated 2016).

Molecular target: T1, recombinant human Syk (GST-hSyk fusion protein) (Homo sapiens, UniProt P43405)
T1 construct: purchased Carna Biosciences 08-176
Experiment: Homogeneous Time-Resolved Fluorescence (HTRF) assay for the recombinant human Syk enzyme
Assay type: biochemical
Details: IC50 class; 10-dose titration, 25 μM ATP; read-out: rhSYK Activity
Method in brief: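 GST-hSyk (5 pM) preincubated 10 min with compound (0.1% DMSO) in 15 mM Tris-HCl pH 7.5, 2 mM DTT; reaction started with 250 nM biotinylated peptide, 5 mM Mg, 25 μM ATP, 45 min, room temperature. EDTA quench, Eu-anti-phosphotyrosine/SA-APC HTRF read after 30 min; IC50 from 10-dose titration (10 μM–0.508 nM), four-parameter fit.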

Compound	IC50
Cc1cc(Nc2nccc(C(F)F)n2)cc(-c2cnn(C(C[C@@H](C)O)[C@@H](C)O)c2)c1 (stereo in doubt) [Example 2.52, 3-[4-(3-{[4-(difluoromethyl)pyrimidin-2-yl]amino}-5-methylphenyl)-1H-pyrazol-1-yl]hexane-2,5-diol]	≤ 100 nM
Nc1cc(Nc2nccc(C(F)(F)F)n2)cc(-c2cnn(C3CCC(C(=O)O)CC3)c2)c1 (stereo not drawn) [Example 1.50, 4-[4-(3-amino-5-{[4-(trifluoromethyl)pyrimidin-2-yl]amino}phenyl)-1H-pyrazol-1-yl]cyclohexanecarboxylic acid]	≤ 100 nM
Cc1cc(Nc2nccc(C(F)F)n2)cc(-c2cnn(CC3OC(=O)NC3(C)C)c2)c1 (stereo not drawn) [Example 3.103, 5-{[4-(3-{[4-(difluoromethyl)pyrimidin-2-yl]amino}-5-methylphenyl)-1H-pyrazol-1-yl]methyl}-4,4-dimethyl-1,3-oxazolidin-2-one]	≤ 100 nM
Cc1cc(Nc2ncc(F)c(C)n2)cc(-c2cnn(C[C@](C)(O)CO)c2)c1 [Example 2.94, (2S)-3-(4-{3-[(5-fluoro-4-methylpyrimidin-2-yl)amino]-5-methylphenyl}-1H-pyrazol-1-yl)-2-methylpropane-1,2-diol]	≤ 100 nM
Cc1cc(Nc2ncccn2)cc(-c2cnn(Cc3ccc(C(N)=O)cc3)c2)c1 [Example 2.57, 4-({4-[3-methyl-5-(pyrimidin-2-ylamino)phenyl]-1H-pyrazol-1-yl}methyl)benzamide]	≤ 100 nM
CCC(O)(CC)Cn1cc(-c2cc(C)cc(Nc3nccc(C(F)F)n3)c2)cn1 [Example 5.32, 3-{[4-(3-{[4-(difluoromethyl)pyrimidin-2-yl]amino}-5-methylphenyl)-1H-pyrazol-1-yl]methyl}pentan-3-ol]	≤ 100 nM
Cc1cc(Nc2nccc(C(F)(F)F)n2)cc(-c2cnn(CCC(N)=O)c2)c1 [Example 3.3]	≤ 100 nM
Cc1cc(Nc2nccc(C(F)(F)F)n2)cc(-c2cnn(CCO)c2)c1 [Example 3.36, 2-[4-(3-methyl-5-{[4-(trifluoromethyl)-pyrimidin-2-yl]amino}-phenyl)-1H-pyrazol-1-yl]ethanol]	≤ 100 nM
Cc1cc(Nc2nccc(C(F)F)n2)cc(-c2cnn(Cc3cc[nH]c(=O)c3)c2)c1 [Example 2.72, 4-{[4-(3-{[4-(difluoromethyl)pyrimidin-2-yl]amino}-5-methylphenyl)-1H-pyrazol-1-yl]methyl}pyridin-2(1H)-one]	≤ 100 nM
CCOC(=O)C(O)Cn1cc(-c2cc(C)cc(Nc3nccc(C(F)F)n3)c2)cn1 (stereo not drawn) [Example 5.20, ethyl 3-[4-(3-{[4-(difluoromethyl)pyrimidin-2-yl]amino}-5-methylphenyl)-1H-pyrazol-1-yl]-2-hydroxypropanoate]	≤ 100 nM
Cc1cc(Nc2nccc(C(F)F)n2)cc(-c2cnn(CC(C)(C)NS(=O)(=O)C3CC3)c2)c1 [Example 27.5, N-{2-[4-(3-{[4-(difluoromethyl)pyrimidin-2-yl]amino}-5-methylphenyl)-1H-pyrazol-1-yl]-1,1-dimethylethyl}cyclopropanesulfonamide]	≤ 100 nM
Cc1cc(Nc2nccc(C(F)(F)F)n2)cc(-c2c[nH]nc2C)c1 [Example 2.39, N-[3-methyl-5-(3-methyl-1H-pyrazol-4-yl)phenyl]-4-(trifluoromethyl)pyrimidin-2-amine]	100 to 1000 nM
Cc1cc(Nc2nccc(C(F)(F)F)n2)cc(-c2cnn(CC3OC(=O)NC3C(C)C)c2)c1 (single isomer, unassigned) [Example 23.4, 4-(1-methylethyl)-5-{[4-(3-methyl-5-{[4-(trifluoromethyl)pyrimidin-2-yl]amino}phenyl)-1H-pyrazol-1-yl]methyl}-1,3-oxazolidin-2-one]	≤ 100 nM
Cc1cc(Nc2nccc(C(F)F)n2)cc(-c2cnn(CC(C)(C)NC(=O)OCCF)c2)c1 [Example 27.10, 2-fluoroethyl {2-[4-(3-{[4-(difluoromethyl)pyrimidin-2-yl]amino}-5-methylphenyl)-1H-pyrazol-1-yl]-1,1-dimethylethyl}carbamate]	≤ 100 nM
Cc1cc(Nc2nccc(C(F)F)n2)cc(-c2cnn(CC3OC(=O)NC3CO)c2)c1 (single isomer, unassigned) [Example 33.3, 5-{[4-(3-{[4-(difluoromethyl)pyrimidin-2-yl]amino}-5-methylphenyl)-1H-pyrazol-1-yl]methyl}-4-(hydroxymethyl)-1,3-oxazolidin-2-one]	≤ 100 nM
Cc1cc(Nc2nccc(C(F)(F)F)n2)cc(-n2cc(C(C)(O)[C@H]3CC[C@H](C(=O)O)CC3)cn2)c1 (stereo partly drawn) [Example 19.13, trans-4-{1-hydroxy-1-[1-(3-methyl-5-{[4-(trifluoromethyl)pyrimidin-2-yl]amino}phenyl)-1H-pyrazol-4-yl]ethyl}cyclohexanecarboxylic acid]	≤ 100 nM
CNC(=O)[C@@H](O)Cn1cc(-c2cc(C)cc(Nc3nccc(C(F)(F)F)n3)c2)cn1 [Example 6.11, (2S)-2-hydroxy-N-methyl-3-[4-(3-methyl-5-{[4-(trifluorometh-yl)pyrimidin-2-yl]amino}phenyl)-1H-pyrazol-1-yl]propanamide]	≤ 100 nM

Compound	IC50
Cc1cc(Nc2cc(C(F)F)ccn2)nc(-c2cnn(C(C)C3CNC(=O)C3)c2)c1 (stereo not drawn) [Example 1.66, 4-{1-[4-(6-{[4-(difluoromethyl)pyridin-2-yl]amino}-4-methylpyridin-2-yl)-1H-pyrazol-1-yl]ethyl}pyrrolidin-2-one]	≤ 100 nM
Cc1cc(Nc2nccc(C(F)F)n2)cc(-c2cnn(CC(O)C3CCCNC3)c2)c1 (stereo not drawn) [Example 5.34, 2-[4-(3-{[4-(difluoromethyl)pyrimidin-2-yl]amino}-5-methylphenyl)-1H-pyrazol-1-yl]-1-piperidin-3-ylethanol]	≤ 100 nM
Cc1cc(Nc2nccc(C(F)F)n2)cc(-c2cnn(C(C[C@@H](C)O)[C@H](C)O)c2)c1 (stereo in doubt) [Example 2.50, 3-[4-(3-{[4-(difluoromethyl)pyrimidin-2-yl]amino}-5-methylphenyl)-1H-pyrazol-1-yl]hexane-2,5-diol]	≤ 100 nM
Cc1cc(Nc2nccc(C)n2)cc(-c2cnn(CC3OC(=O)NC3C)c2)c1 (single isomer, unassigned) [Example 23.7, 4-methyl-5-[(4-{3-methyl-5-[(4-methylpyrimidin-2-yl)amino]phenyl}-1H-pyrazol-1-yl)methyl]-1,3-oxazolidin-2-one]	≤ 100 nM
Cc1cc(Nc2nccc(C(F)(F)F)n2)cc(-c2cnn(CC3(O)CCCOC3)c2)c1 (stereo not drawn) [Example 12.7, 3-{[4-(3-methyl-5-{[4-(trifluoromethyl)pyrimidin-2-yl]amino}phenyl)-1H-pyrazol-1-yl]methyl}-tetrahydro-2H-pyran-3-ol]	≤ 100 nM
Cc1cc(Nc2nccc(C(F)(F)F)n2)cc(-c2cnn(CC3OC(=O)NC3C(C)C)c2)c1 (single isomer, unassigned) [Example 23.6, 4-(1-methylethyl)-5-{[4-(3-methyl-5-{[4-(trifluoromethyl)pyrimidin-2-yl]amino}phenyl)-1H-pyrazol-1-yl]methyl}-1,3-oxazolidin-2-one]	≤ 100 nM
Cc1cc(Nc2nccc(C(F)(F)F)n2)cc(-c2cnn(C(C)C(=O)O)c2)c1 (stereo not drawn) [Example 3.35, 2-[4-(3-methyl-5-{[4-(trifluoromethyl)pyrimidin-2-yl]amino}-phenyl)-1H-pyrazol-1-yl]propanoic acid]	≤ 100 nM
Cc1cc(Nc2ncc(F)c(C(F)F)n2)cc(-c2cnn(CC(C)(O)CC#N)c2)c1 (stereo not drawn) [Example 20.6, 4-[4-(3-{[4-(difluoromethyl)-5-fluoropyrimidin-2-yl]amino}-5-methylphenyl)-1H-pyrazol-1-yl]-3-hydroxy-3-methylbutanenitrile]	≤ 100 nM
COCCOC(=O)NCCn1cc(-c2cc(C)cc(Nc3nccc(C(F)F)n3)c2)cn1 [Example 27.3, 2-methoxyethyl {2-[4-(3-{[4-(difluoromethyl)pyrimidin-2-yl]amino}-5-methylphenyl)-1H-pyrazol-1-yl]ethyl}carbamate]	≤ 100 nM
Cc1cc(Nc2nccc(C(F)(F)F)n2)cc(-c2cnn(CCNC(N)=O)c2)c1 [Example 3.16, 1-{2-[4-(3-methyl-5-{[4-(trifluoromethyl)-pyrimidin-2-yl]-amino}phenyl)-1H-pyrazol-1-yl]ethyl}urea]	≤ 100 nM
Cc1cc(Nc2nccc(C(F)F)n2)cc(-c2cnn(C(C[C@@H](C)O)[C@@H](C)O)c2)c1 (stereo in doubt) [Example 2.56, 3-[4-(3-{[4-(difluoromethyl)pyrimidin-2-yl]amino}-5-methylphenyl)-1H-pyrazol-1-yl]hexane-2,5-diol]	≤ 100 nM
1-[4-(3-methyl-5-{[4-(trifluoro-ethyl)pyrimidin-2-yl]amino}-phenyl)-1H-pyrazol-1-yl]-3-morpholin-4-ylpropan-2-ol [Example 5.10]	≤ 100 nM
Cc1cc(Nc2nccc(C(F)F)n2)cc(-c2cnn(C(C)C3CNC(=O)C3)c2)c1 (stereo not drawn) [Example 2.69, 4-{1-[4-(3-{[4-(difluoromethyl)pyrimidin-2-yl]amino}-5-methylphenyl)-1H-pyrazol-1-yl]ethyl}pyrrolidin-2-one]	≤ 100 nM
Cc1cc(Nc2nccc(C(F)(F)F)n2)cc(-c2cnn(CC3(O)CCOCC3)c2)c1 [Example 12.5, 4-{[4-(3-methyl-5-{[4-(trifluoromethyl)pyrimidin-2-yl]amino}phenyl)-1H-pyrazol-1-yl]methyl}-tetrahydro-2H-pyran-4-ol]	≤ 100 nM
Cc1cc(Nc2nccc(C(F)(F)F)n2)cc(-c2cnn(C(C)C(C)(O)CO)c2)c1 (single isomer, unassigned) [Example 21.9, 2-methyl-3-[4-(3-methyl-5-{[4-(trifluoromethyl)pyrimidin-2-yl]amino}phenyl)-1H-pyrazol-1-yl]butane-1,2-diol]	≤ 100 nM
Cc1cc(Nc2nccc(C(F)(F)F)n2)cc(-c2cnn(CC3CNC(=O)O3)c2)c1 (stereo not drawn) [Example 2.45, 5-{[4-(3-methyl-5-{[4-(trifluoromethyl)-pyrimidin-2-yl]amino}phenyl)-1H-pyrazol-1-yl]methyl}-1,3-oxazolidin-2-one]	≤ 100 nM
